Like-named read-outs stand apart in the source and are kept apart here.
Legend:
IL-8 = experiment: Glucocorticoid transrepression assay, IL-8 inhibition (TR); type: cell-based; settings: Homo sapiens
Summary of the method: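 Human lung epithelial NCI-H292 cells at 75-90% confluence were pretreated with steroid or antagonist for 1 h at 37 °C. TNFα was then added at 10 ng/ml final and cells were incubated overnight, with 10 μM dexamethasone as the maximum-inhibition control. Secreted IL-6 and IL-8 were measured in the medium by MSD multi-spot immunoassay.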

[1] = test system: human glucocorticoid response element coupled with a luciferase reporter gene; experiment: GRE-transactivation assay (HeLa-GRE luciferase, TA); type: cell-based
Protocol: HeLa cells were stably transfected with a human glucocorticoid response element coupled with a luciferase reporter gene. Cells were plated in 96 well Packard View Plates (black sides/ clear bottom) at 20 K cells/0.2 ml complete medium. Plates were incubated overnight at 37°/5% CO2. Medium was aspirated and replaced with 150 μl medium containing 5% charcoal-treated FBS and cells incubated overnight again. Test compounds were prepared in 5% charcoal-treated FBS medium. Medium was aspirated from plates and replaced with 100 μl of test compounds or controls. Plates were returned to incubator for exactly 24 hours. To measure induced luciferase, 100 μl of Steady-Glo luciferase assay substrate (Promega) was added to each well. Plates were sealed and mixed on a plate shaker for 5 minutes. Plate bottom opaque seals were added and the plates were allowed to stand for 60 minutes. Luminescence was measured on a Top-Count instrument (Perkin-Elmer).

IL-6 = experiment: Glucocorticoid transrepression assay, IL-6 inhibition (TR); type: cell-based; settings: Homo sapiens; Table 4; NCl-H292 cells, TNFα 10 ng/ml
Protocol: Human Lung epithelial cell line NCl-H292 cells were dissociated from stock flask using 0.05% trypsin/0.53 mM EDTA. Cells were suspended in complete medium and counted. Cells were plated in 96-well flat-bottom plates at 20K cells /well in 0.2 ml/well. Plates were incubated for 24-48 hours until cells were between 75-90% confluent. Medium was aspirated and replaced with medium containing various concentrations of steroids or antagonists. After 1 hour incubation at 37°, TNFα (10 ng/ml final concentration in 0.2 ml) was added and the cells incubated overnight. Control wells with and without TNF were included on each plate, as well as wells with TNF in addition to a maximum (10 μM) concentration of dexamethasone. The cell culture medium was sampled and IL-6 and IL-8 cytokine production was measured using the MSD Multi-Spot immunoassay.

[2] = symptoms associated with chronic nasal congestion; cited from earlier work
[3] = Table 1, NCl-H292 cells, TNFα 10 ng/ml
[4] = Table 1, NCl-H292 cells, TNFα 10 ng/ml, read-out: IL-8 inhibition (TR) Emax % inhibition
[5] = HeLa cells, 24 hours, luciferase, read-out: EMAX value, GRE-transactivation assay

CC12Cc3cnn(-c4ccc(F)cc4)c3C=C1CCC1C2[C@@H](O)CC2(C)C1CC[C@]2(O)C(=O)CSc1nc2ccccc2s1 (stereo partly shown) [Compound 1]
IC50 (IL-8; [3]): 0.06 to 20 nM | Emax (IL-8; [4]): > 80% | Emax [1, 5]: 71%

C[C@]12Cc3cnn(-c4ccc(F)cc4)c3C=C1CCC1C2[C@@H](O)C[C@@]2(C)C1CC[C@]2(OC(=O)c1ccco1)C(=O)SCc1ccc(-c2ccccn2)cc1 (stereo partly shown) [Compound 1]
Emax (IL-6): > 80% | IC50 (IL-6): 0.06 to 20 nM

C[C@]12Cc3cnn(-c4ccc(F)cc4)c3C=C1CCC1C2[C@@H](O)C[C@@]2(C)C1CC[C@]2(OC(=O)c1ccco1)C(=O)SCc1ccc2ccccc2n1 (stereo partly shown) [Compound 2]
Emax (IL-6): > 80% | IC50 (IL-6): 0.06 to 20 nM

C[C@]12Cc3cnn(-c4ccc(F)cc4)c3C=C1CCC1C2[C@@H](O)C[C@@]2(C)C1CC[C@]2(OC(=O)c1ccco1)C(=O)SCc1nc2ccccc2o1 (stereo partly shown) [Compound 3]
Emax (IL-6): > 80% | IC50 (IL-6): 0.06 to 20 nM

C[C@]12Cc3cnoc3C=C1CCC1C2[C@@H](O)C[C@@]2(C)C1CC[C@]2(O)C(=O)Nc1nc2cccnc2s1 (stereo partly shown) [Compound 4-1]
Emax (IL-8; text value for compound 4-1, only a % value printed, read-out: IL-8 inhibition(TR) IC50/Emax(nM, % inhibition)): 23% | Emax ([1]; text value for compound 4-1, only a % value printed, read-out: H Hela-GRE luciferase(TA) IC50/Emax(nM, % inhibition)): 0%

C[C@]12Cc3cnn(-c4ccc(F)cc4)c3C=C1CCC1C2[C@@H](O)C[C@@]2(C)C1CC[C@]2(OC(=O)c1ccco1)C(=O)SCc1cccc(N2CCCC2)n1 (stereo partly shown) [Compound 4]
Emax (IL-6): > 80% | IC50 (IL-6): 0.06 to 20 nM

CC12Cc3cnn(CCC#N)c3C=C1CCC1C2[C@@H](O)CC2(C)C1CC[C@]2(O)C(=O)CSc1ccccn1 (stereo partly shown) [Compound 60]
IC50 (IL-8; [3]): 66 to 400 nM | Emax (IL-8; [4]): < 60% | Emax [1, 5]: 15%

CC12Cc3cnn(C4CCOCC4)c3C=C1CCC1C2[C@@H](O)CC2(C)C1CC[C@]2(O)C(=O)CSc1nc2cccnc2s1 (stereo partly shown) [Compound 71]
IC50 (IL-8; [3]): 66 to 400 nM | Emax (IL-8; [4]): > 80% | Emax [1, 5]: 85%

CC12Cc3cnn(C4CCOCC4)c3C=C1CCC1C2[C@@H](O)CC2(C)C1CC[C@]2(O)C(=O)CSc1ccc2ccccc2n1 (stereo partly shown) [Compound 74]
IC50 (IL-8; [3]): 66 to 400 nM | Emax (IL-8; [4]): 70 to 80% | Emax [1, 5]: 56%

Cc1ccnc(SCC(=O)[C@@]2(O)CCC3C4CCC5=Cc6c(cnn6C6CCCCC6)CC5(C)C4[C@@H](O)CC32C)n1 (stereo partly shown) [Compound 131]
IC50 (IL-8; [3]): 0.06 to 20 nM | Emax (IL-8; [4]): > 80% | Emax [1, 5]: 83%

Oc1cccc(Nc2ncc(F)c(Nc3cccc(O)c3)n2)c1 [Compound R112]
absolute difference over placebo [2]: 9% | improvement from baseline measurements (prior to drug initiation) [2]: up to 38% | relative improvement over placebo [2]: greater than 20%

From US20120171126A1, “NOVEL [3,2-c] HETEROARYL STEROIDS AS GLUCOCORTICOID RECEPTOR AGONISTS COMPOSITIONS AND USES THEREOF” (priority 2009, published 2012)
